Values quoted from earlier work as cited in patent US20220184102A1, “COMPOSITIONS AND METHODS FOR TREATING AGE-RELATED MACULAR DEGENERATION” (priority 2019, published 2022).

What was measured:
[1] = tested on: early seropositive rheumatoid arthritis; settings: 20 mg twice-daily (subantimicrobial dose) plus MTX
chronic periodontitis = settings: 20 mg twice daily, two years
intestinal flora = settings: 20 mg twice-daily for 9 months
[2] = tested on: neovascular exudative AMD; settings: oral minocycline combined with reduced-fluence PDT, intravitreal ranibizumab, intravitreal dexamethasone

| Compound | number of adverse events versus placebo group [1] | microbiological resistance (chronic periodontitis) | safety issues (chronic periodontitis) | tolerability (adult periodontitis; 10 mg daily, 20 mg daily or 20 mg twice daily, 9-12 months) | resistance to doxycycline (adult periodontitis; during the course of the study) | liver or kidney function tests versus control group (adult periodontitis; treatment groups) | antibacterial effect on intestinal flora (intestinal flora) | levels in the brain relative to doxycycline at the same dose [fold] | safety concerns [2] |
| --- | --- | --- | --- | --- | --- | --- | --- | --- | --- |
| C[C@H]1c2cccc(O)c2C(=O)C2=C(O)[C@]3(O)C(=O)C(C(N)=O)=C(O)[C@@H](N(C)C)[C@@H]3[C@@H](O)[C@@H]21 [doxycycline] | equivalent | no sign of microbiological resistance | no significant safety issues | well-tolerated | no resistance developed | No clinically significant differences | no antibacterial effect | – | – |
| CN(C)c1ccc(O)c2c1C[C@H]1C[C@H]3[C@H](N(C)C)C(O)=C(C(N)=O)C(=O)[C@@]3(O)C(O)=C1C2=O [minocycline] | – | – | – | – | – | – | – | ~3 | No safety concerns were identified |
